In assay [1] the test system is VSV-SARS-CoV-2. The assay is described as follows: microbe, parasite or virus in culture. The conditions noted are these: Vesicular stomatitis virus, Calu-3, in Homo sapiens, read-out: VSV SARS CoV-2 Cell Entry EC50 (nM).
The test system of assay [2] is VSV-SARS-CoV-2.

Molecules are shown by their SMILES. Like-named read-outs stand apart in the source and are kept apart here. Numbered stars: 1 amine (or outer) side, 2 acyl side, 3 side chain; on linkers, the order of the positions; unused ones are H or OH. Square brackets hold non-standard residues; d marks the D form. Peptide text beside a SMILES is read from it. X1 = N=C(N)NCCC[C@H](N[*:1])C(=O)c1nc2ccc(C(=O)[*:2])cc2s1

Experimental findings from patent publication US20250171495A1, “MUTLI-TARGETED SERINE PROTEASE INHIBITORS FOR TREATMENT OF CANCER AND VIRAL INFECTION” (Washington University, priority 2023, published 2025) are described below.

A word on the EC50: it is the concentration at which the effect is half-maximal. In the case of `CC(=O)N[C@@H](Cc1c[nH]c2ccccc12)C(=O)N[C@@H](CC(C)C)C(=O)N[C@@H](CCCNC(=N)N)C(=O)c1nc2ccc(C(=O)O)cc2s1` [PK-1-105, 2-[(S)-2-[(S)-2-[(S)-2-acetylamino-3-(3-indolyl)propionylamino]-4-methylvalerylamino]-5-guanidinovaleryl]-1,3-benzothiazole-6-carboxylic acid], the EC50 in assay [1] is 721 nM.
In turn, `CC(=O)N[C@H]1CC(=O)NCCCC[C@@H](C(=O)N[C@@H](CCCNC(=N)N)C(=O)c2nc3ccccc3s2)NC(=O)[C@H](CC(C)C)NC1=O` [VD2173, Ac-Cyclo(DLK)—R-ketobenzothiazole] returned an EC50 in assay [2] (VSV-) of 0.197 µM.
With `CC(=O)N[C@H]1Cc2ccc(cc2)OCCCC[C@@H](C(=O)N[C@@H](CCCNC(=N)N)C(=O)c2nc3ccccc3s2)NC(=O)[C@@H](Cc2c[nH]c3ccccc23)NC1=O` [VD4162B, N-[(S)-1-[(1,3-benzothiazol-2-yl)carbonyl]-4-guanidinobutyl]-(7S,10R,13S)-13-acetylamino-10-[(3-indolyl)methyl]-9,12-dioxo-2-oxa-8,11-diazabicyclo[13.2.2]nonadeca-1(17),15,18-triene-7-carboxamide], in assay [1], the half-maximal effective concentration (EC50) amounted to 2060 nM.
Turning to `CC(=O)N[C@H]1Cc2ccc(cc2)Oc2cccc(c2)C[C@@H](C(=O)N[C@@H](CCCNC(=N)N)C(=O)c2nc3ccccc3s2)NC(=O)[C@H](CC(C)C)NC1=O` [VD5064B, N-[(S)-1-[(1,3-benzothiazol-2-yl)carbonyl]-4-guanidinobutyl]-(9S,12S,15S)-15-acetylamino-12-isobutyl-11,14-dioxo-2-oxa-10,13-diazatricyclo[15.2.2.1^3,^7]docosa-1(19),3,5,7(22),17,20-hexaene-9-carboxamide], the EC50 in assay [1] was determined as 8370 nM.
Take `CC(=O)N[C@@H](CO)C(=O)N[C@@H](CCCCN)C(=O)N[C@@H](Cc1ccccc1)C(=O)N[C@@H](CCCNC(=N)N)C(=O)c1nccs1` [ZFH6095, N-[(S)-1-[N-(S)-4-guanidino-1-[(1,3-thiazol-2-yl)carbonyl]butylcarbamoyl]-2-phenylethyl](S)-2-[(S)-2-acetylamino-3-hydroxypropionylamino]-6-aminohexanamide]: in assay [1], the EC50 turned out to be 1160 nM.
Take `CC(=O)N[C@@H](CCCCN)C(=O)N[C@@H](CCC(N)=O)C(=O)N[C@@H](Cc1ccccc1)C(=O)N[C@@H](CCCNC(=N)N)C(=O)c1nccs1` [ZFH6101, N-[(S)-1-[N-(S)-4-guanidino-1-[(1,3-thiazol-2-yl)carbonyl]butylcarbamoyl]-2-phenylethyl](S)-2-[(S)-1-acetylamino-5-aminopentylcarbonylamino] glutaramide]: the concentration giving a half-maximal response (EC50) in assay [1] worked out at 262 nM.
The same measure, in the same setting: as for `CC(=O)N[C@@H](CO)C(=O)N[C@@H](CCC(N)=O)C(=O)N[C@@H](CC(C)C)C(=O)N[C@@H](CCCNC(=N)N)C(=O)c1nccs1` [ZFH6138, N-[(S)-3-methyl-1-[N-(S)-4-guanidino-1-[(1,3-thiazol-2-yl)carbonyl]butylcarbamoyl]butyl](S)-2-[(S)-2-acetylamino-3-hydroxypropionylamino]glutaramide], the figure is 1320 nM.
Same read-out and setting: as for `CC(=O)N[C@@H](CC(C)C)C(=O)N[C@@H](CC(C)C)C(=O)N[C@@H](CCCNC(=N)N)C(=O)c1nccs1` [ZFH6201-1, N-[(S)-4-guanidino-1-[(1,3-thiazol-2-yl)carbonyl]butyl](S)-2-[(S)-2-acetylamino-4-methylvalerylamino]-4-methylvaleramide], the figure is 1840 nM.
In the case of `CC(=O)N[C@@H](CCCCN)C(=O)N[C@@H](CCC(N)=O)C(=O)N[C@@H](CC(C)C)C(=O)N[C@@H](CCCNC(=N)N)C(=O)c1nc2ccccc2s1` [ZFH7006, N-[(S)-3-methyl-1-[N-(S)-1-[(1,3-benzothiazol-2-yl)carbonyl]-4-guanidinobutylcarbamoyl]butyl](S)-2-[(S)-1-acetylamino-5-aminopentylcarbonyl-amino]glutaramide], the half-maximal effective concentration (EC50) in assay [1] came to 572 nM; in assay [2] (read-out: VSV SARS CoV-2 Cell Entry EC50), 0.652 µM.
For the molecule `CC(=O)N[C@@H](CO)C(=O)N[C@@H](CCCCN)C(=O)N[C@@H](CC(C)C)C(=O)N[C@@H](CCCNC(=N)N)C(=O)c1nc2ccccc2s1` [ZFH7053, N-[(S)-3-methyl-1-[N-(S)-1-[(1,3-benzothiazol-2-yl)carbonyl]-4-guanidinobutylcarbamoyl]butyl](S)-2-[(S)-2-acetylamino-3-hydroxypropionylamino]-6-aminohexanamide], the EC50 in assay [1] is 4270 nM.
Still for that read-out and setting: with `CC(=O)N[C@@H](Cc1ccccc1)C(=O)N[C@@H](CC(C)C)C(=O)N[C@@H](Cc1ccccc1)C(=O)N[C@@H](CCCNC(=N)N)C(=O)c1nc2ccccc2s1` [ZFH7063, N-[(S)-1-[N-(S)-1-[(1,3-benzothiazol-2-yl)carbonyl]-4-guanidinobutylcarbamoyl]-2-phenylethyl](S)-2-[(S)-2-acetylamino-3-phenylpropionylamino]-4-methylvaleramide] the figure was 101 nM; with `CC(=O)N[C@@H](CO)C(=O)N[C@@H](CCCCN)C(=O)N[C@@H](CC(C)C)C(=O)N[C@@H](CCCNC(=N)N)C(=O)c1nc2ccc(C(=O)N[C@H](C(N)=O)C(C)C)cc2s1` [ZFH7116, N-[(S)-1-carbamoyl-2-methylpropyl]-2-[(S)-2-[(S)-2-[(S)-1-[(S)-2-acetylamino-3-hydroxypropionylamino]-5-aminopentylcarbonyl-amino]-4-methylvalerylamino]-5-guanidinovaleryl]-1,3-benzothiazole-6-carboxamide] (Ac-SKL[X1]V-NH2), 489 nM.
